Structures are written as SMILES. Where a SMILES comes first, the peptide text is derived from it. Bridges are numbered along the chain shown (N, C = ends). [ ]: non-standard residue; d: D form. The star is where a group is joined. Phe(4-COOH) = N[C@@H](Cc1ccc(C(=O)O)cc1)C(=O)O; Bip = N[C@@H](Cc1ccc(-c2ccccc2)cc1)C(=O)O; hhGln = NC(=O)CCCC[C@H](N)C(=O)O; Cha = N[C@@H](CC1CCCCC1)C(=O)O; Cit = NC(=O)NCCC[C@H](N)C(=O)O; 12Ado = NCCCCCCCCCCCC(=O)O; Carboxymethyl = O=C(O)C*; NMeA = CN[C@@H](C)C(=O)O; Orn = NCCC[C@H](N)C(=O)O; Aun = NCCCCCCCCCCC(=O)O; Dab = NCC[C@H](N)C(=O)O; Dap = NC[C@H](N)C(=O)O; AEEA = NCCOCCOCC(=O)O

T1 sequence (Q15116 25-288): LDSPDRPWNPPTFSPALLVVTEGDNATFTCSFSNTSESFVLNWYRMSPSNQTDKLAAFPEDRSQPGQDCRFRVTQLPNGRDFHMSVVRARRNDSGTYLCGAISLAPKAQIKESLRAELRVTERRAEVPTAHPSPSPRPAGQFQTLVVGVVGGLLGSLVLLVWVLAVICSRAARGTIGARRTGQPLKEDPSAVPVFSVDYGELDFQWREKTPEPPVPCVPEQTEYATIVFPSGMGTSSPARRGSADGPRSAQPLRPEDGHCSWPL

The experiment concerns the target T1, PD-1/PD-L1 interaction (PE-labeled human PD-L1-Ig binding to Jurkat cell line over-expressing human PD-1) (Homo sapiens, UniProt Q15116).
T1 construct: expressed in transfected cells; host or cells: Jurkat
Nature of the experiment: Jurkat-PD-1 Cell Binding High-Content Screening Assay (CBA). Particulars: Jurkat-hPD-1 cells, PE-labeled PD-L1-Ig 20 nM final; read-out: Jurkat HPD1 PDL1 IC50. The procedure, abridged:
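Jurkat-hPD-1 cells (8×10^3/well) in DMEM with 10% fetal calf serum were preincubated with compound for 2 h at 37 °C. PE-labeled PD-L1-Ig was then added at 20 nM final for 1 h. Cells were fixed in paraformaldehyde with Hoechst 33342, washed and imaged by high-content imaging.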
On to `CC(C)C[C@@H]1NC(=O)[C@H](Cc2c[nH]c3ccccc23)NC(=O)[C@H](CC(=O)O)NC(=O)[C@H](Cc2ccc(C(=O)O)cc2)NC(=O)[C@H](Cc2ccc(OCC(=O)O)cc2)NC(=O)CSC[C@@H](C(=O)N[C@@H](CCN)C(=O)NCCOCCOCC(=O)NCCCCCCCCCCC(=O)O)NC(=O)[C@H](CCCNC(N)=O)NC(=O)[C@H](C(C)C)NC(=O)[C@H](CC2CCCCC2)NC(=O)[C@H](CCN)NC(=O)[C@@H](CC(C)C)NC(=O)[C@H](C)N(C)C(=O)[C@H](C(C)C)NC(=O)[C@H](Cc2ccc(-c3ccccc3)cc2)NC1=O` [Example 2127] ({CH2CO}-Y(Carboxymethyl)[Phe(4-COOH)]DWL[Bip]V[NMeA][dL][Dab][Cha]V[Cit]C[Dab][AEEA][Aun]-OH; thioether N-14), for which the IC50 worked out at 0.0104 µM.

For `CC(C)C[C@@H]1NC(=O)[C@H](Cc2c[nH]c3ccccc23)NC(=O)[C@H](CC(=O)O)NC(=O)[C@H](Cc2ccc(C(=O)O)cc2)NC(=O)[C@H](Cc2ccc(OCC(=O)O)cc2)NC(=O)CSC[C@@H](C(=O)N[C@@H](CCCN)C(=O)NCCOCCOCC(=O)NCCCCCCCCCCC(=O)O)NC(=O)[C@H](CCCCC(N)=O)NC(=O)[C@H](C(C)C)NC(=O)[C@H](CC2CCCCC2)NC(=O)[C@H](CCN)NC(=O)[C@@H](CC(C)C)NC(=O)[C@H](C)N(C)C(=O)[C@H](C(C)C)NC(=O)[C@H](Cc2ccc(-c3ccccc3)cc2)NC1=O` [Example 2128] ({CH2CO}-Y(Carboxymethyl)[Phe(4-COOH)]DWL[Bip]V[NMeA][dL][Dab][Cha]V[hhGln]C[Orn][AEEA][Aun]-OH; thioether N-14), the IC50 amounted to 0.0089 µM.

For `CC(C)C[C@@H]1NC(=O)[C@H](Cc2c[nH]c3ccccc23)NC(=O)[C@H](CC(=O)O)NC(=O)[C@H](Cc2ccc(OCC(=O)O)cc2)NC(=O)[C@H](Cc2ccc(OCC(=O)O)cc2)NC(=O)CSC[C@@H](C(=O)N[C@@H](CCCN)C(=O)NCCOCCOCC(=O)NCCCCCCCCCCC(=O)O)NC(=O)[C@H](CCCCC(N)=O)NC(=O)[C@H](C(C)C)NC(=O)[C@H](CC2CCCCC2)NC(=O)[C@H](CCN)NC(=O)[C@@H](CC(C)C)NC(=O)[C@H](C)N(C)C(=O)[C@H](C(C)C)NC(=O)[C@H](Cc2ccc(-c3ccccc3)cc2)NC1=O` [Example 2129] ({CH2CO}-Y(Carboxymethyl)Y(Carboxymethyl)DWL[Bip]V[NMeA][dL][Dab][Cha]V[hhGln]C[Orn][AEEA][Aun]-OH; thioether N-14), the IC50 was determined as 0.0112 µM.

For `CC(C)C[C@@H]1NC(=O)[C@H](Cc2c[nH]c3ccccc23)NC(=O)[C@H](CC(=O)O)NC(=O)[C@H](Cc2ccc(OCC(=O)O)cc2)NC(=O)[C@H](Cc2ccc(OCC(=O)O)cc2)NC(=O)CSC[C@@H](C(=O)N[C@@H](CCCN)C(=O)NCCOCCOCC(=O)NCCCCCCCCCCC(=O)O)NC(=O)[C@H](CO)NC(=O)[C@H](C(C)C)NC(=O)[C@H](CC2CCCCC2)NC(=O)[C@H](CCN)NC(=O)[C@@H](CC(C)C)NC(=O)[C@H](C)N(C)C(=O)[C@H](C(C)C)NC(=O)[C@H](Cc2ccc(-c3ccccc3)cc2)NC1=O` [Example 2130] ({CH2CO}-Y(Carboxymethyl)Y(Carboxymethyl)DWL[Bip]V[NMeA][dL][Dab][Cha]VSC[Orn][AEEA][Aun]-OH; thioether N-14), the IC50 came out at 0.0118 µM.

For the compound `CC(C)C[C@@H]1NC(=O)[C@H](Cc2c[nH]c3ccccc23)NC(=O)[C@H](CC(=O)O)NC(=O)[C@H](Cc2ccc(C(=O)O)cc2)NC(=O)[C@H](Cc2ccc(OCC(=O)O)cc2)NC(=O)CSC[C@@H](C(=O)N[C@@H](CCCN)C(=O)NCCOCCOCC(=O)NCCCCCCCCCCCC(=O)O)NC(=O)[C@H](CO)NC(=O)[C@H](C(C)C)NC(=O)[C@H](CC2CCCCC2)NC(=O)[C@H](CCN)NC(=O)[C@@H](CC(C)C)NC(=O)[C@H](C)N(C)C(=O)[C@H](C(C)C)NC(=O)[C@H](Cc2ccc(-c3ccccc3)cc2)NC1=O` [Example 2131] ({CH2CO}-Y(Carboxymethyl)[Phe(4-COOH)]DWL[Bip]V[NMeA][dL][Dab][Cha]VSC[Orn][AEEA][12Ado]-OH; thioether N-14), the half-inhibitory concentration (IC50) was determined as 0.0191 µM.

As to `CC(C)C[C@@H]1NC(=O)[C@H](Cc2c[nH]c3ccccc23)NC(=O)[C@H](CC(=O)O)NC(=O)[C@H](Cc2ccc(C(=O)O)cc2)NC(=O)[C@H](Cc2ccc(OCC(=O)O)cc2)NC(=O)CSC[C@@H](C(=O)N[C@@H](CN)C(=O)NCCOCCOCC(=O)NCCCCCCCCCCC(=O)O)NC(=O)[C@H](CCCNC(N)=O)NC(=O)[C@H](C(C)C)NC(=O)[C@H](CC2CCCCC2)NC(=O)[C@H](CCN)NC(=O)[C@@H](CC(C)C)NC(=O)[C@H](C)N(C)C(=O)[C@H](C(C)C)NC(=O)[C@H](Cc2ccc(-c3ccccc3)cc2)NC1=O` [Example 2132] ({CH2CO}-Y(Carboxymethyl)[Phe(4-COOH)]DWL[Bip]V[NMeA][dL][Dab][Cha]V[Cit]C[Dap][AEEA][Aun]-OH; thioether N-14), the IC50 came to 0.0082 µM.

Turning to `CC(C)C[C@@H]1NC(=O)[C@H](Cc2c[nH]c3ccccc23)NC(=O)[C@H](CC(=O)O)NC(=O)[C@H](Cc2ccc(C(=O)O)cc2)NC(=O)[C@H](Cc2ccc(OCC(=O)O)cc2)NC(=O)CSC[C@@H](C(=O)N[C@@H](CCCN)C(=O)NCCOCCOCC(=O)NCCCCCCCCCCC(=O)O)NC(=O)[C@H](CO)NC(=O)[C@H](C(C)C)NC(=O)[C@H](CC2CCCCC2)NC(=O)[C@H](CCCCN)NC(=O)[C@@H](CC(C)C)NC(=O)[C@H](C)N(C)C(=O)[C@H](C(C)C)NC(=O)[C@H](Cc2ccc(-c3ccccc3)cc2)NC1=O` [Example 2133] ({CH2CO}-Y(Carboxymethyl)[Phe(4-COOH)]DWL[Bip]V[NMeA][dL]K[Cha]VSC[Orn][AEEA][Aun]-OH; thioether N-14), the IC50 was 0.0234 µM.

Take `CC(C)C[C@@H]1NC(=O)[C@H](Cc2c[nH]c3ccccc23)NC(=O)[C@H](CC(=O)O)NC(=O)[C@H](Cc2ccc(C(=O)O)cc2)NC(=O)[C@H](Cc2ccc(OCC(=O)O)cc2)NC(=O)CSC[C@@H](C(=O)N[C@@H](CCCN)C(=O)NCCOCCOCC(=O)NCCCCCCCCCCC(=O)O)NC(=O)[C@H](CN)NC(=O)[C@H](C(C)C)NC(=O)[C@H](CC2CCCCC2)NC(=O)[C@H](CCN)NC(=O)[C@@H](CC(C)C)NC(=O)[C@H](C)N(C)C(=O)[C@H](C(C)C)NC(=O)[C@H](Cc2ccc(-c3ccccc3)cc2)NC1=O` [Example 2134] ({CH2CO}-Y(Carboxymethyl)[Phe(4-COOH)]DWL[Bip]V[NMeA][dL][Dab][Cha]V[Dap]C[Orn][AEEA][Aun]-OH; thioether N-14): the IC50 is 0.032 µM.

On to `CC(C)C[C@@H]1NC(=O)[C@H](Cc2c[nH]c3ccccc23)NC(=O)[C@H](CC(=O)O)NC(=O)[C@H](Cc2ccc(C(=O)O)cc2)NC(=O)[C@H](Cc2ccc(OCC(=O)O)cc2)NC(=O)CSC[C@@H](C(=O)N[C@@H](CCCN)C(=O)NCCOCCOCC(=O)NCCCCCCCCCCC(=O)O)NC(=O)[C@H](CCCN)NC(=O)[C@H](C(C)C)NC(=O)[C@H](CC2CCCCC2)NC(=O)[C@H](CCN)NC(=O)[C@@H](CC(C)C)NC(=O)[C@H](C)N(C)C(=O)[C@H](C(C)C)NC(=O)[C@H](Cc2ccc(-c3ccccc3)cc2)NC1=O` [Example 2135] ({CH2CO}-Y(Carboxymethyl)[Phe(4-COOH)]DWL[Bip]V[NMeA][dL][Dab][Cha]V[Orn]C[Orn][AEEA][Aun]-OH; thioether N-14), for which the IC50 was determined as 0.0132 µM.

For orientation: IC50 means the concentration that gives 50% inhibition.

Values taken from patent US20260070945A1, “MACROCYCLIC IMMUNOMODULATORS” (Bristol-Myers Squibb Company, priority 2022, published 2026).
